Test results taken from ChEMBL document CHEMBL3507680, “University of Dundee, Gates Library screen for HepG2 cell viability”.

Test: Human HepG2 cell viability assay in 384 well format
Format: toxicity, cell-based
Design: dose 125 nL, time 70.5 hour; concentration not given beside the values
Conditions: HepG2 cells, read-out: Inhibition

SMILES | cytotoxicity at 70.5 h [%]
CCc1n[nH]c(C2CN(Cc3csc(C4CCCC4)n3)CCO2)n1 (stereo not drawn) | 6.69
CN(C)c1ccc(NC(=O)N2CCCC2c2ccsc2)cn1 (stereo not drawn) | -12.1
Cc1cc(C)c(CNc2ncnc3ccsc23)c(=O)[nH]1 | -9.82
COc1ccc(NC(=O)N2CCCCC2c2ncc[nH]2)cc1 (stereo not drawn) | -7.7
Cc1cc(C)c(CNc2ncnc3ccccc23)c(=O)[nH]1 | -2.78
Cc1cc(C)c(CNc2cnc3ccccc3n2)c(=O)[nH]1 | 59.4
N#Cc1ccc(OC2CCN(CC(=O)NCC(F)(F)F)CC2)cc1 | -12.8
N#Cc1ccc(SCCC(=O)N(Cc2cccnc2)C2CC2)cc1 | -7.83
N#Cc1ccc(OC2CCN(C(=O)COCC3CCCO3)CC2)cc1 (stereo not drawn) | -9.76
CCc1noc(CS(=O)(=O)c2cccc(OC)c2)n1 | 4.71
CS(=O)(=O)CCC(=O)NC(Cc1ccccc1)C1CC1 (stereo not drawn) | -4.37
CCCn1nccc1NC(=O)c1ccc(Cl)c(N2CCNC2=O)c1 | -2.55
CCn1nc(C)cc1C(=O)N1CCOc2cc(C)ccc21 | -7.11
Cc1n[nH]c(C2CN(Cc3csc(C4CCCC4)n3)CCO2)n1 (stereo not drawn) | -6.59
COc1cc(NC2CCCNC2)cc(OC)c1 (stereo not drawn) | 17.7
COc1ccc(C(C#N)NC(=O)CC2=CCCCC2)c(OC)c1 (stereo not drawn) | -3.57
CN(C)c1ccc(NC(=O)N2CCCCC2c2ncc[nH]2)cn1 (stereo not drawn) | 14.8
Cc1cc(C)c(CNc2nc3ccccc3cc2CO)c(=O)[nH]1 | 6.72
CS(=O)(=O)NCC(=O)NC(Cc1ccccc1)C1CCCC1 (stereo not drawn) | -4.4
CS(=O)(=O)c1nccn1CCOc1ccccc1F | 13.8

SMILES | cytotoxicity at 70.5 h [%]
COc1cccc(C2=CCN(CCN3CCOC3=O)CC2)c1 | 11.1
CS(=O)(=O)N1CCO[C@@H]2CN(C(=O)N3CCCC3)CC[C@@H]2C1 | -8.13
CN(C)C(=O)CN1CCO[C@H]2CN(Cc3ccoc3)C[C@H]21 | -4.25
CC(C)NC(=O)C1CN(C(=O)N(C)C)CC12CCOCC2 (stereo not drawn) | -3.34
Cc1ccc(CNCC2Cn3nncc3CO2)o1 (stereo not drawn) | -3.52
Cc1nnc([C@@]23CCO[C@@H]2CCN(S(=O)(=O)c2cccnc2)C3)o1 | -5.15
COCC1CC2(CCN(Cc3ccoc3)CC2)CN1Cc1ccccn1 (stereo not drawn) | 16.1
c1coc(CNCC2Cn3nncc3CO2)c1 (stereo not drawn) | -8.73
Cc1ccc(CN2C[C@H](NC(=O)c3nccn3C)[C@H]3OCCC[C@H]32)o1 | 18.3
COCC1c2nnn(C)c2CCN1C(=O)COc1ccccc1OC (stereo not drawn) | 1.52
CN(C)C(=O)NCC1CC2(CO1)CN(c1nncs1)C2 (stereo not drawn) | 1.71
CN1CCC2(C=C(C(=O)N(C)C)c3ccccc32)CC1 | 2.91
COCC1c2nnn(C)c2CCN1C(=O)c1ccc(OC)c(F)c1 (stereo not drawn) | -7.3
Cc1nc(COC[C@@]23CCC[C@@H]2CN(Cc2cnn(C)c2)C3)cs1 | -5
Cc1csc([C@H]2C[C@@H]3CCN(Cc4cc(C)on4)C[C@H]3O2)n1 | -5.27
COCC1c2nnn(C)c2CCN1C(=O)CCc1cccc(OC)c1 (stereo not drawn) | -3.47
CCN1CCN(C)C2(CCN(C(=O)CC(F)(F)F)CC2)C1=O | 0.29
CN1CCN(C)C2(CCN(C(=O)CC(F)(F)F)CC2)C1=O | 0.213
CCN1CC2(CC1=O)CN(C(=O)NC(C)C)CCN(C(=O)NC(C)C)C2 | -4.47
c1cncc(N2CCCn3nnc(CN4CCOCC4)c3C2)c1 | -5

SMILES | cytotoxicity at 70.5 h [%]
CCn1nc(C)cc1C(=O)N1C[C@@H]2C[C@@H](c3nc(C)cs3)O[C@@H]2C1 | -2.46
c1ccc2c(c1)C(NC1CCCC1)CC21CCNCC1 (stereo not drawn) | -1.32
Cc1ccc2c(c1)C1(CCNCC1)CC2NCCO (stereo not drawn) | -1.58
CCc1ncnc2c1CCN(CC(=O)N(C)C)CC2 | -1.77
Cc1nnc([C@]23COC[C@H]2CN(S(=O)(=O)c2cccnc2)C3)o1 | -5.13
Cn1ccnc1C(=O)N[C@@H]1CN(CC2CCOCC2)[C@@H]2CCCO[C@@H]21 | -2.65
COCCN1C(=O)CC(c2cccnc2)C12CCN(C(=O)C1CC1)CC2 (stereo not drawn) | -0.348
O=C(c1ccccc1F)N1CCC2(CC1)CC(N1CCCC1)CO2 (stereo not drawn) | -7.88
CC(C)CN1CCC2(C=C(C(=O)N(C)C)c3ccccc32)CC1 | -2.19
Cn1cc(CN2C[C@H]3CCC[C@@]3(COCC3CC3)C2)cn1 | -1.1
Cn1ccnc1C(=O)N[C@@H]1CN(Cc2ccoc2)[C@@H]2CCCO[C@@H]21 | -2.77
Cc1csc([C@H]2C[C@H]3CN(Cc4cc(C)on4)CC[C@@H]3O2)n1 | -7.64
CCN1CCC2(C=C(C(=O)N(C)C)c3ccccc32)CC1 | 0.372
Fc1cnc(N2CCCC3(CN(Cc4cccs4)CCO3)C2)nc1 (stereo not drawn) | 2.35
CNC(=O)[C@H]1C[C@@H]2CN(Cc3ccc(OC)cc3)C[C@H]1O2 | -4.08
COCC1CC2(CCN(CC3CC3)CC2)CN1Cc1ccccn1 (stereo not drawn) | -2.19
Cc1ccc(CN2CCc3onc(C(=O)Nc4cccnc4)c3C2)o1 | -7.97
c1cncc(CN2CCN3C[C@H](Oc4cncnc4)C[C@H]3C2)c1 | -5.49
